Assay [1] relates to ZR-75-1, T47D, LNCaP, MCF-7 cells. The assay can be described thus: Growth inhibition rate (GR) assay in cell lines sensitive to AKT inhibition. In kind it is cell-based. The settings on record: MCF-7, 72-hour treatment (FIG. 6A-6D). An excerpt:
(§1) FIG. 6A-FIG. 6F are a set of graphs that show growth inhibition rate (GR) values across concentrations in ZR-75-1 (FIG. 6A), T47D (FIG. 6B), LNCaP (FIG. 6C), MCF-7 (FIG. 6D), MDA-MB-468 (FIG. 6E), and HCC1937 (FIG. 6F) cells after 72-hour treatment with GDC-0068 (blue), inventive bifunctional compound 10 (red), bifunctional compound 10-Me (negative control) (green), and lenalidomide (orange). Error bars represent the standard deviation of three technical replicates.

For the next assay, the system named is ZR-75-1 cells. As to the kind of experiment: Growth inhibition rate (GR) assay in ZR-75-1 cells. The settings on record: 72-hour treatment (FIG. 6A). In kind it is cell-based.
Source text: as §1

The test system of assay [2] is phosphorylated PRAS40. The assay can be described thus: Immunoblot of phosphorylated PRAS40 in MDA-MB-468 cells. In kind it is cell-based, human. To be noted: 24-hour treatment. The protocol: (§2) MDA-MB-468 (human breast cancer cell line) cells were maintained in RPMI 1640 (Wisent Bioproducts) supplemented with 10% FBS (Thermo Fisher Scientific) and MCF10A (human breast epithelial cell line) cells were maintained in Dulbecco's modified Eagle's medium (DMEM)/Ham's F12 (Wisent Bioproducts) supplemented with 5% equine serum (Fisher), insulin (10 μg/ml) (Life Technologies), hydrocortisone (500 ng/ml) (Sigma-Aldrich®), epidermal growth factor (20 ng/ml) (R&D Systems), and cholera toxin (100 ng/ml) (List Biological Lab). MDA-MB-468 and MCF10A cells were seeded at 250,000 cells/mL and 200,000 cells/mL, respectively. The following day cells were treated with inventive bifunctional compounds. After 24 hours, cells were washed with phosphate-buffered saline at 4° C. and lysed in radioimmunoprecipitation assay (RIPA) buffer (150 mM Tris-HCl, 150 mM NaCl, 0.5% (w/v) sodium deoxycholate, 1% (v/v) NP-40, pH 7.5) containing 0.1% (w/v) sodium dodecyl sulfate, 1 mM sodium pyrophosphate, 20 mM sodium fluoride, 50 nM calyculin, and 0.5% (v/v) protease inhibitor cocktail (Sigma-Aldrich®)). Cell extracts were precleared by centrifugation at 14,000 rpm for 10 minutes at 4° C. The Bio-Rad DC protein assay was used to assess protein concentration, and sample concentration was normalized using SDS sample buffer. […] Images were stored and analyzed using ImageStudioTM (LI-COR®) software.
For orientation: In western blotting, separated proteins are transferred to a membrane and probed.

Assay [3] relates to phospho-PRAS40 (T246), phospho-GSK3I3 (S9), phospho-S6 (S240/244). As to the kind of experiment: Immunoblot of downstream signaling (pPRAS40, pGSK3, pS6) in T47D and MDA-MB-468 cells. In kind it is cell-based, human. The protocol: Solid vertical white line indicates samples run on separate gels. […] Solid vertical white line indicates samples run on separate gels. Cells were plated at 250,000 cells per mL (MDA-MB-468, MOLT4, IGROV1, PC3, and Jurkat) or 200,000 cells per mL (T47D) in 2 mL per well of RPMI or DMEM media with 10% serum in 6-well treated tissue culture plates (Greiner, Cat #TCG-657160) or 60 mm treated tissue culture plates (Corning®, Cat #430166) and incubated overnight. The next day, cells were treated with the indicated compounds at the appropriate concentration and protein lysates were harvested at the times specified. Cells were washed once in 1×PBS then lysed in RIPA buffer (150 mM Tris-HCl, 150 mM NaCl, 0.5% (w/v) sodium deoxycholate, 1% (v/v) NP-40, pH 7.5) containing 0.1% (w/v) sodium dodecyl sulfate, 1 mM sodium pyrophosphate, 20 mM sodium fluoride, 50 nM calyculin, and 0.5% (v/v) protease inhibitor cocktail (Sigma-Aldrich®) for 15 minutes. Cell extracts were precleared by centrifugation at 14,000 rpm for 10 minutes at 4° C. The Bio-Rad DC protein assay was used to assess protein concentration, and sample concentration was normalized using SDS sample buffer. Lysates were resolved on acrylamide gels by SDS-polyacrylamide gel electrophoresis and electrophoretically transferred to nitrocellulose membrane (BioRad) at 100 volts for 90 minutes. Membranes were blocked in 5% (w/v) nonfat dry milk in tris-buffered saline (TBS) buffer for 1 hour then incubated with specific primary antibodies diluted in 5% (w/v) nonfat dry milk in TBS-T (TBS with 0.05% Tween®-20) at 4° C. overnight, shaking. The next day, membranes were washed with TBS-T then incubated for 1 hour at room temperature with fluorophore-conjugated secondary antibodies (LI-COR® Biosciences). The membrane was washed again with TBS-T then imaged with a LI-COR® Odyssey® CLx Imaging System (LI-COR® Biosciences).

For assay [4], the system named is phosphorylated PRAS40. As to the kind of experiment: Immunoblot of phosphorylated PRAS40 in MCF10A cells. In kind it is cell-based, human. The settings on record: 24-hour treatment. The procedure: as §2, with “software. […]” for “software.”
Setting [5] is: T47D and MDA-MB-468 cells, 250 nM (FIG. 7C-7D).

Regarding `Nc1cccc2c1CN(C1CCC(=O)NC1=O)C2=O` (centres unmarked) [lenalidomide], in assay [1], the Anti-proliferative effects result is listed as “did not have strong anti-proliferative effects”.

As to `CC(C)NC[C@@H](C(=O)N1CCN(c2ncnc3c2[C@H](C)C[C@H]3O)CC1)c1ccc(Cl)cc1` [GDC-0068], the GR50 entry in the assay with ZR-75-1 cells is reported as “comparable GR50 value”. Besides, in the assay with phosphorylated PRAS40 [2], the “Phosphorylated PRAS40 signal” value is listed as “reduction of phosphorylated proline-rich AKT substrate of 40 kDa (PRAS40) signal”. Further, in assay [3] (setting [5]), the “Duration of reduction of pPRAS40 levels” value is recorded as “shorter” and the “Inhibition of pPRAS40 compared with compound 10” value is “less-pronounced inhibition of pPRAS40”. Besides, the “Phosphorylation of PRAS40, GSK3I3 and S6” value in assay [3] (T47D and MDA-MB-468 cells, 250 nM, 24 hours (FIG. 7A-7B)) was “weaker responses”. Also, the “pPRAS40 levels after compound washout” value in assay [3] (T47D or MDA-MB-468 cells, 12 h treatment at 250 nM, then washout (FIG. 7E-7F)) is given as “rebound of pPRAS40”. Moreover, the “Phosphorylated PRAS40 signal” value in the assay on phosphorylated PRAS40 [4] is “reduction of phosphorylated PRAS40 signal”.

The values above are taken from patent publication US12642857B2, “Degradation of AKT by conjugation of ATP-competitive AKT inhibitor GDC-0068 with E3 ligase ligands and methods of use” (DANA-FARBER CANCER INSTITUTE, INC., priority 2019, dated 2026).
